In the METLIN SMRT retention time set (Domingo-Almenara et al. 2019) one finds RP-LC retention time data, which are given here for 80 compounds.

SMILES strings stand for the structures.

The series in a line: gradient 5% acetonitrile 3 min, to 50% in 2 min, to 85% in 15 min, held 3 min, 100 µL/min. The note with it: column: Zorbax Extend-C18 2.1 x 50 mm; eluents: water / acetonitrile, 0.1% formic acid. A digest of the protocol: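 Retention times come from adduct peaks that were picked computationally and then checked by hand. The standards, pure and pooled in mixtures of ~100 molecules, were run on a Zorbax Extend-C18 column (2.1 × 50 mm, 1.8 μm) at 100 μL/min with water and acetonitrile, each with 0.1% formic acid. Detection was by quadrupole time-of-flight mass spectrometry in positive and negative ionization mode, with a dead volume of 40 μL and a dwell volume of 900 μL.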
Take `CS(=O)(=O)N(CC(=O)NCc1ccc2c(c1)OCCCO2)Cc1ccc(Cl)cc1`: the RP-LC retention time came out at 889 s.

On to `O=C(CCn1cnc2cc(-c3noc(COc4ccc(Cl)cc4)n3)ccc21)N1CCCC1`, for which the RP-LC retention time worked out at 786 s.

For `Cc1cccc(-c2nnc(-c3nc(NCCc4cnc[nH]4)c4ccccc4n3)o2)c1`, the RP-LC retention time is 672 s.

Compound `Cc1cc(C)n2nc(SCC(=O)Nc3ccc(C)c(C)c3)nc2n1` returned an RP-LC retention time of 764 s.

`CCCNC(=O)C1CCCN(c2ccc(SCC(=O)Nc3ccc(F)c(F)c3)nn2)C1` (stereo not given) showed an RP-LC retention time of 662 s.

In the case of `O=C1CCSc2ccc(S(=O)(=O)N3CCC(C(=O)NCc4ccccc4)CC3)cc2N1`, the RP-LC retention time amounted to 761 s.

The compound `COc1ccc(NC(=O)c2cc3c(=O)n(CC(C)C)c4ccccc4n3n2)c(OC)c1` had an RP-LC retention time of 1180 s.

As for `Cc1cc(N2CCN(C(=O)Nc3ccccc3Cl)CC2)nc(N2CCOCC2)n1`, the RP-LC retention time was 637 s.

Consider `CCCc1nc2cccnc2n1C1CCN(C(=O)NCc2ccccc2)C1` (stereo not given), for which the RP-LC retention time is 603 s.

Compound `CC(=O)N1CCc2cc(S(=O)(=O)C(C)CC(=O)NC3CCN(Cc4ccccc4)CC3)ccc21` (stereo not given) displayed an RP-LC retention time of 551 s.

`CCn1nc(CNC(=O)c2ccc(F)cc2)c2ccccc21` displayed an RP-LC retention time of 839 s.

The compound `CNC(=O)c1sc2nc(-c3ccc(OC)cc3)c(NC(C)(C)C)n2c1C` yielded an RP-LC retention time of 737 s.

`Cc1ccc2nc(C(=O)NCc3cccc(F)c3)cn2c1` displayed an RP-LC retention time of 689 s.

As for `COC(=O)C1(C)CCCC2(C)c3cc(OC)ccc3C(=O)C(Br)C12` (stereo not given), the RP-LC retention time came to 1130 s.

`Cc1ccc(C(=O)N2CCC3(CC2)N=C(c2ccc(Br)cc2)NO3)cc1` came in with an RP-LC retention time of 875 s.

Consider `CCCCc1nnc(NC(=O)C2CC(=O)N(CCc3c[nH]c4ccc(OC)cc34)C2)s1` (stereo not given), for which the RP-LC retention time is 766 s.

In turn, `COc1ccc(NC(=O)Cn2cccc2-c2nnc(-c3ccccc3)o2)cc1` registered an RP-LC retention time of 894 s.

Compound `COc1ccc(NC(=O)Nc2cccc(-c3ccc(N4CCOCC4)nn3)c2)cc1Cl` showed an RP-LC retention time of 715 s.

Take `O=C(N[C@H]1C[C@@H]2C[C@H]1CN2C(=O)c1cccc(C(F)(F)F)c1)c1ccccc1`: the RP-LC retention time amounted to 809 s.

`CC(C)NC(=O)c1cccn(-c2ccc(NC(=O)C(C)(C)C)cc2)c1=O` came in with an RP-LC retention time of 749 s.

The compound `O=C(CNC(=O)c1ccc(F)c(Cl)c1)Nc1nc2ccccc2[nH]1` yielded an RP-LC retention time of 660 s.

On to `CCNC(=O)c1ncn2c1C(=O)N(C1CC1)C(C)(C(=O)NCc1ccccc1)C2` (stereo not given), for which the RP-LC retention time was 656 s.

Compound `O=S(=O)(c1ccc(F)cc1)N1CCc2nc(-c3ccc(Cl)cc3)ncc2C1` showed an RP-LC retention time of 1170 s.

Consider `O=C(NCCOc1ccc2nnc(-c3cccc(F)c3)n2n1)c1ccc(=O)[nH]n1`, for which the RP-LC retention time is 598 s.

`O=C1C=C(NCCc2ccccc2)c2ccccc2C1=O` yielded an RP-LC retention time of 736 s.

For the compound `CCc1nc(N)n(CC(=O)Nc2ccc(Br)cc2)c(=O)c1C`, the RP-LC retention time stood at 666 s.

Regarding `CCCS(=O)(=O)N1CCc2ccc(NC(=O)Oc3ccccc3)cc2C1`, the RP-LC retention time was 878 s.

Consider `Cc1nc(-c2ccc(N3CCN(C(=O)c4cc(F)ccc4F)CC3)nc2)sc1C`, for which the RP-LC retention time is 890 s.

As to `O=C(NC1CCCC1)C1CCCN(C(=O)c2ccc(F)c(F)c2)C1` (stereo not given), the RP-LC retention time came out at 763 s.

`Cc1cc(C)cc(C(=O)NCc2nn(C)c3ccccc23)c1` yielded an RP-LC retention time of 854 s.

`CCOc1ccc(-c2noc(CN3N=NC4C(=O)N(c5ccc(F)cc5)C(=O)C43)n2)cc1OC` (stereo not given) registered an RP-LC retention time of 936 s.

Regarding `CN(C(=O)Cn1nc(Cc2ccncc2)c2ccccc2c1=O)c1ccccc1Cl`, the RP-LC retention time stood at 627 s.

`CCc1nnc(-c2ccc3ccn(CC(=O)Nc4ccc(NC(C)=O)cc4)c3c2)o1` displayed an RP-LC retention time of 703 s.

`Cc1onc(-c2ccccc2)c1C(=O)NC1C(=O)N2C1SC(C)(C)C2C(=O)O` (stereo not given) came in with an RP-LC retention time of 818 s.

`CC1=C(c2cccc(Cl)c2)S(=O)(=O)N=C1N1CCCN(C(=O)c2ccoc2)CC1` yielded an RP-LC retention time of 806 s.

Compound `Cc1ccccc1CNC(=O)C1(C)CCCN(C(=O)Nc2ccc(F)cc2)C1` (stereo not given) had an RP-LC retention time of 899 s.

On to `O=C(c1ccsc1)N1CCC2(CC1)NC(=O)N(Cc1cccc(Cl)c1)C2=O`, for which the RP-LC retention time turned out to be 816 s.

The compound `CCCCNC(=O)CCCn1c(=O)c2cccn2c2ccccc21` registered an RP-LC retention time of 780 s.

The compound `CC(C(=O)Nc1nc(-c2ccccc2)cs1)N1C(=O)C2C3C=CC(C3)C2C1=O` (stereo not given) showed an RP-LC retention time of 955 s.

In turn, `CCOc1ccc(NC(=O)CN2C(=O)c3ccccc3C2=O)c([N+](=O)[O-])c1` yielded an RP-LC retention time of 839 s.

Consider `COCCNC(=O)CN1C(=O)C2CCCCN2c2ccc(C(=O)N3CCCC3)cc21` (stereo not given), for which the RP-LC retention time turned out to be 653 s.

`CS(=O)(=O)N1CCN(C(=O)CCc2csc(NC(=O)c3ccc(F)cc3)n2)CC1` gave an RP-LC retention time of 666 s.

Take `CC(C)c1nnc2ccc(N3CCOCC3)nn12`: the RP-LC retention time was determined as 645 s.

`O=C(O)CCCCC(CCSCc1ccccc1)SCc1ccccc1` (stereo not given): the RP-LC retention time was 670 s.

The compound `Cc1nn2c(CNC(=O)c3ccccc3C(F)(F)F)c(C)nc2s1` had an RP-LC retention time of 638 s.

Compound `O=S(=O)(c1ccc2nncn2c1)N(Cc1cc(F)cc(F)c1)c1ccccc1` yielded an RP-LC retention time of 861 s.

Turning to `Cc1cnn(Cc2nc(-c3ccc(NC(=O)c4cccs4)cc3)oc2C)c1`, the RP-LC retention time was determined as 879 s.

In turn, `COc1ccc(NC(=O)Cn2nc3n(c2=O)CCCC3)cc1` gave an RP-LC retention time of 634 s.

In the case of `CC(C)NC(=O)N1CCC(c2noc(-c3cnccn3)n2)C1` (stereo not given), the RP-LC retention time worked out at 624 s.

In the case of `CCC(C)NC(=O)c1ccc(CN2CCN(Cc3ccccc3)C(=O)C2=O)cc1` (stereo not given), the RP-LC retention time turned out to be 721 s.

`Cc1ccc2[nH]c(=O)nc(-c3ccccc3)c2c1` had an RP-LC retention time of 648 s.

For `CCN(CC)Cc1ccc2c(c1)CN(C(=O)NC1CCCC1)CCO2`, the RP-LC retention time was 558 s.

For the compound `Cc1[nH]c(C(=O)N2CCCC(C(=O)NCC3CCCO3)C2)c(C)c1C(=O)OC(C)C` (stereo not given), the RP-LC retention time amounted to 701 s.

`CCOC(=O)COc1cc(O)cc2oc(-c3ccccc3)cc(=O)c12` returned an RP-LC retention time of 695 s.

In turn, `Cc1cc(C)cc(-c2nnc(Cc3nc(-c4cccc(C(F)(F)F)c4)no3)o2)c1` returned an RP-LC retention time of 1250 s.

For the compound `CCN(CC)CCNC(=O)c1ccc(CS(=O)(=O)c2ccc(Br)cc2)o1`, the RP-LC retention time is 634 s.

In turn, `CCCNC(=O)CC1CCN(C(=O)c2[nH]c(C)c(C)c2C)CC1` had an RP-LC retention time of 698 s.

In the case of `COc1ccc(-c2nc(-c3ccc4ncn(C)c4c3)no2)cc1`, the RP-LC retention time came out at 732 s.

Compound `CCOCCCNC(=O)CCc1c(-c2ccc(F)cc2)nc2ccccn12` showed an RP-LC retention time of 588 s.

`CCC(=O)N1c2ccc(S(=O)(=O)N3CCCCC3)cc2CC1C(=O)NCCCc1ccccc1` (stereo not given) registered an RP-LC retention time of 977 s.

Compound `Cc1nn2c(CNS(=O)(=O)Cc3ccc(C)c(C)c3)c(-c3ccccc3)nc2s1` registered an RP-LC retention time of 974 s.

For the compound `COc1ccc(C(=O)NC2CCN(C(=O)c3cc(-c4ccc(OC)cc4)n[nH]3)CC2)cc1`, the RP-LC retention time was determined as 729 s.

Take `Cc1cc(NC(=O)Cc2csc(NC(=O)c3ccc(F)cc3)n2)sn1`: the RP-LC retention time is 701 s.

Compound `Cc1noc(C)c1CCC(=O)N1CCCCC1c1nncn1CC1CC1` (stereo not given) showed an RP-LC retention time of 655 s.

As to `CCSC1=C(C#N)C(c2ccccc2Cl)C(C(=O)Nc2ccccc2C)=C(C)N1` (stereo not given), the RP-LC retention time was found to be 862 s.

With `CS(=O)(=O)c1ccc2nc(Nc3nc4cc5c(cc4s3)OCO5)sc2c1`, the RP-LC retention time was determined as 786 s.

Regarding `CCCn1c(=O)sc2cc(S(=O)(=O)N3CCC(C(=O)Nc4ncccc4C)CC3)ccc21`, the RP-LC retention time came to 660 s.

As for `CN(C)S(=O)(=O)c1ccc2c(c1)N(CC(=O)NC1CCCC1)C(=O)C1CCCCN21` (stereo not given), the RP-LC retention time amounted to 856 s.

Compound `O=C(C1CC1)N1CCC(F)(C(=O)NCC2CC2)CC1` displayed an RP-LC retention time of 631 s.

Compound `CN1C(=O)C2(c3ccccc31)C(C(=O)Nc1c(F)c(F)c(F)c(F)c1F)CC1CCCN12` (stereo not given) returned an RP-LC retention time of 653 s.

The compound `CC1CCN(S(=O)(=O)c2ccc3c(c2)-c2oncc2CO3)CC1` came in with an RP-LC retention time of 673 s.

`COc1cccc(-n2cc(-c3nc(-c4ccccn4)no3)c3ccccc3c2=O)c1` showed an RP-LC retention time of 966 s.

`CCn1cc(S(=O)(=O)N2CCCCC2c2nc(-c3ccncc3)n[nH]2)cn1` (stereo not given) showed an RP-LC retention time of 695 s.

In the case of `Cc1ccc(-c2csc(NC(=O)CCCOc3ccc(Cl)cc3)n2)cc1`, the RP-LC retention time was found to be 979 s.

`NS(=O)(=O)c1ccc(NC(=O)c2ccc(S(=O)(=O)c3ccc(Cl)cc3)s2)cc1` displayed an RP-LC retention time of 877 s.

With `CC(=O)N1CCc2cc(CNS(=O)(=O)c3ccccc3F)ccc21`, the RP-LC retention time worked out at 738 s.

With `CCCN(C)C(=O)c1c(C)oc2c1CN(C(=O)CC)CC2`, the RP-LC retention time turned out to be 652 s.

In the case of `CC(=O)N1CCC2(CC1)OC(=O)C(C)=C2C(=O)NC1CCN(Cc2ccccc2)CC1`, the RP-LC retention time worked out at 581 s.

For the compound `O=c1ccc(-c2ccccc2F)nn1Cc1nc(-c2ccccc2Cl)no1`, the RP-LC retention time amounted to 1020 s.

`Cc1sc(NC(=O)Cc2csc(-c3ccccc3)n2)nc1-c1ccc(Cl)cc1` showed an RP-LC retention time of 1280 s.
